Measurements as given in article PMC9137581, “Identification of a Novel Class of Anti-Melanogenic Compounds, (Z)-5-(Substituted benzylidene)-3-phenyl-2-thioxothiazolidin-4-one Derivatives, and Their Reactive Oxygen Species Scavenging Activities” (Antioxidants, 2022).

Assays:
[1] = biological target: T1, mushroom tyrosinase (Agaricus bisporus, UniProt C7FF04); test: Mushroom tyrosinase inhibition assay (L-tyrosine substrate); type: biochemical; conditions: for IC50: L-tyrosine substrate, means ± SEMs of triplicate determinations; for potency of mushroom tyrosinase inhibition relative to kojic acid: ratio of IC50 values versus kojic acid
T1 construct: purchased Sigma-Aldrich
Method: In order to examine the inhibitory effect of the (Z)-BPTT analogs on tyrosinase activity, commercially available mushroom tyrosinase (Sigma-Aldrich, St. Louis, MO, USA) was used. The mushroom tyrosinase-inhibitory activities of the analogs were determined as described previously with modification. Briefly, 20 µL (20 units) of an aqueous mushroom tyrosinase solution was added to each well of a 96-well microplate containing 170 µL of a substrate mixture consisting of 345 μM of L-tyrosine solution, 17.2 mM phosphate buffer (pH 6.5), and 10 µL of a (Z)-BPTT analog solution at different concentrations or 10 µL of a kojic acid solution (2, 10, or 50 μM). After incubating the assay mixtures for 30 min at 37 °C, the remaining tyrosinase activities were calculated from the amounts of dopachrome that were formed as determined by measuring their absorbance at 492 nm using a microplate reader (VersaMax™, Molecular Devices, Sunnyvale, CA, USA). The curves of the IC50 values that were derived from the X-axis of the inhibitor concentration versus the amount of product that was produced were determined by aligning the dose–response curve with the Y-axis. Inhibition experiments were performed in triplicate using three to six different concentrations of the (Z)-BPTT analogs or kojic acid. Log–linear curves and their equations were determined by using inhibition percentages at three to six analog concentrations. The individual IC50 values were determined by reading the concentrations on the Y-axis at 50% inhibition. The results are the means of three independent experiments.
The tyrosinase-inhibitory activities were screened against mushroom tyrosinase using L-tyrosine as a substrate, as previously described. Kojic acid, a representative tyrosinase inhibitor, was used as a positive control. […]. All 13 of the (Z)-BPTT analogs inhibited tyrosinase activity in a concentration-dependent manner. The IC50 values are shown in Table 2, along with the analog substitutions.
Target sequence in this assay (C7FF04 1-392 limits assumed): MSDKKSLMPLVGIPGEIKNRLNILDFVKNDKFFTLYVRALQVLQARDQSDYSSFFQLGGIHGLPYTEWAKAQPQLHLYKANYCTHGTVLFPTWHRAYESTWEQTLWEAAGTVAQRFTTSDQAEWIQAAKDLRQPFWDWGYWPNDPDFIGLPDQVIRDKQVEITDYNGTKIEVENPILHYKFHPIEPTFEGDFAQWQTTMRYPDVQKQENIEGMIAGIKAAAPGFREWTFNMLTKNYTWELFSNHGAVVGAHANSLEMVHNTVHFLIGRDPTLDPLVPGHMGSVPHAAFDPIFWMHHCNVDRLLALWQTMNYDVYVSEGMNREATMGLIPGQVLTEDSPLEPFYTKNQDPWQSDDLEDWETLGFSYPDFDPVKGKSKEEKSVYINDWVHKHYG

[2] = biological target: T1, mushroom tyrosinase; test: Kinetic studies of mushroom tyrosinase inhibition (L-DOPA; Lineweaver–Burk and Dixon plots); type: biochemical; conditions: for mode of action (type of inhibition): Lineweaver–Burk plots; for Ki: determined using Dixon plots, L-DOPA substrate
Method: The Michael constants (KM), inhibition constants (Ki), and Lineweaver–Burk and Dixon plots of the analogs were used in order to determine their modes of action. […] The initial rates of dopachrome production in the reaction mixtures were calculated by measuring the increases in absorbance at 492 nm (ΔOD492/min) using a microplate reader (VersaMax™, Molecular Devices, Sunnyvale, CA, USA). The maximal reaction velocity (Vmax) was determined using Lineweaver–Burk plots (plots of the inverse of the reaction rate (1/V) versus the inverse of the substrate concentration (1/[S])) that were obtained using six different L-DOPA concentrations. The mode of action of each analog was determined using the convergence point of the four plot lines.
. Lineweaver–Burk plots were used in order to determine the modes of action of these four analogs (Figure 4). Mushroom tyrosinase inhibition plots were obtained using six different L-DOPA (substrate) concentrations and four different concentrations of each analog. […] On the other hand, the Michaelis–Menten constants (KM) increased upon the increase of the analogs’ concentrations (Table 3). The KM values of the analogs were 1.042, 1.193, 1.433, and 2.159 mM at analog 1 concentrations of 0, 1, 2, and 4 µM; 1.077, 2.117, 2.899, and 4.865 mM at analog 2 concentrations of 0, 2.5, 5, and 10 µM; […]; and 1.030, 1.243, 1.531, and 1.885 mM at analog 6 concentrations of 0, 1, 2, and 4 µM. The mean of the Vmax values that were determined from the Lineweaver–Burk plots was 0.0171 mM/min. In order to determine the inhibition constants (Ki) for the mushroom tyrosinase–analog complexes, the Lineweaver–Burk plots were converted into their corresponding Dixon plots (Figure 5), in which 1/V (where V is the initial reaction velocity) was plotted against the inhibitor concentration [I] at different L-DOPA [S] concentrations.
Target sequence in this assay (C7FF04 1-392): as the sequence (C7FF04 1-392 limits assumed) above

[3] = test system: B16F10 cells; test: Melanin content assay in α-MSH plus IBMX-stimulated cells; type: cell-based, murine; conditions: for reduction of α-MSH plus IBMX-induced increase in melanin content: 48 h, B16F10 cells; for effect on melanin content compared with kojic acid: analog at 5 µM
Method: Briefly, B16F10 cells were seeded at a density of 1 × 10^5 cells per well in 6-well plates and allowed to adhere to the well bases under the same conditions that were used for cell culturing. […] In order to determine the melanin contents, the B16F10 cells that were exposed to α-MSH and IBMX for 48 h were rinsed with PBS twice and incubated in 200 µL of 1 N NaOH solution containing 10% dimethyl sulfoxide (DMSO) for 1 h at 60 °C. The cell lysates were transferred to a 96-well plate and the absorbances at 405 nm were measured using a microplate reader (VersaMax™, Molecular Devices, Sunnyvale, CA, USA). These experiments were performed individually in triplicate. B16F10 cells were seeded in 6-well culture plates and pretreated with analogs 1, 3, and 6 at concentrations of 0, 5, 10, or 20 µM and with analog 2 at 0, 2.5, 5, or 10 µM for 1 h. α-Melanocyte-stimulating hormone (α-MSH; 1 µM) and 3-isobutyl-1-methylxanthine (IBMX; 200 µM) were added sequentially in order to enhance melanin production. After incubation for 48 h at 37 °C, the melanin contents were assessed by measuring the well optical densities at 405 nm using a microplate reader. Kojic acid (10 or 20 µM) was used as a positive control.

[4] = test system: intracellular ROS in B16F10 cells; test: Intracellular ROS scavenging activity assay (DCFH-DA, SIN-1); type: cell-based, murine; conditions: ≤ 20 µM, 10 µM SIN-1, B16F10 cells
Method: ROS scavenging activity was determined as has previously been described by Ali et al. and Lebel and Bondy. Briefly, DCFH-DA (2′,7′-dichlorodihydrofluorescein-diacetate) (2.5 mM; Molecular Probes, Eugene, OR, USA) mixed with esterase (1.5 units/mL) in a phosphate buffer (50 mM; pH 7.4) was incubated for 30 min at 37 °C and then placed on ice in the dark until it was required. In order to determine their intracellular ROS scavenging activities, B16F10 cells (1 × 10^4/well) were seeded in black 96-well plates and incubated for 24 h. The cells were then co-treated with the analogs and SIN-1 (3-morpholinosydnonimine) (10 µM), as previously described, for 2 h. DCFH-DA (20 µM) was added for 30 min in the dark and the fluorescence intensities of the oxidized DCFH were measured using a microplate reader (Tecan, Männedorf, Switzerland) at excitation and emission wavelengths of 485 and 530 nm, respectively. Trolox was used as the positive control.
We investigated the effects of the analogs on intracellular ROS (reactive oxygen species) because, reportedly, ROS might regulate melanogenesis in melanoma cells. The principle of the intracellular ROS assay that was used is that DCFH-DA (2′,7′-dichlorodihydrofluorescein diacetate) spreads across the cell membrane and is enzymatically hydrolyzed by esterases to DCFH (2′,7′-dichlorodihydrofluorescein), which reacts with ROS in order to generate DCF (2′,7′-dichlorofluorescein), which is fluorescent. Thus, the intracellular ROS scavenging activities of (Z)-BPTT analogs 1–3 and 6 were investigated in vitro using DCFH-DA. SIN-1 (3-morpholinosydnonimine) and trolox were used as a RNS/ROS generator [54] and a positive control, respectively.

IC50 [1] | potency of mushroom tyrosinase inhibition relative to kojic acid [1] | mode of action (type of inhibition) [2] | Ki [2] | enhancement of inhibitory activity relative to analog 4 ([1]; ratio of IC50 values versus analog 4) | Compound | reduction of α-MSH plus IBMX-induced increase in melanin content ([3]; 20 µM) | effect on melanin content compared with kojic acid [3] | intracellular ROS scavenging activity [4] | melanin suppression relative to kojic acid at 10 µM ([3]; 10 µM) | reduction of α-MSH plus IBMX-induced increase in melanin content ([3]; 10 µM) | suppression of α-MSH plus IBMX-induced melanogenesis compared with kojic acid ([3]; analog at 2.5 µM)
1450 ± 40 nM | 12 fold | competitive | 4670 nM |  | O=C1/C(=C/c2ccc(O)cc2)SC(=S)N1c1ccccc1 [Analog 1, (Z)-5-(4-Hydroxybenzylidene)-3-phenyl-2-thioxothiazolidin-4-one] | 56.3% | as effective as kojic acid at 20 µM | did not show ROS scavenging activity |  |  | 
1380 ± 110 nM |  | competitive | 3180 nM |  | O=C1/C(=C/c2ccc(O)c(O)c2)SC(=S)N1c1ccccc1 [Analog 2, (Z)-5-(3,4-Dihydroxybenzylidene)-3-phenyl-2-thioxothiazolidin-4-one] |  |  | significantly and concentration-dependently reduced SIN-1-induced increases in the intracellular ROS activity and it did so to a greater extent than trolox | 4.1 fold | 89.6% | as effectively as kojic acid at 10 µM
590 ± 30 nM | 29 fold | competitive | 708 nM |  | O=C1/C(=C/c2ccc(O)cc2O)SC(=S)N1c1ccccc1 [Analog 3, (Z)-5-(2,4-Dihydroxybenzylidene)-3-phenyl-2-thioxothiazolidin-4-one] | 61.3% | as effective as kojic acid at 20 µM |  |  |  | 
1880 ± 700 nM |  | competitive | 3230 nM | 43 fold | COc1ccc(/C=C2\SC(=S)N(c3ccccc3)C2=O)cc1O [Analog 6, (Z)-5-(3-Hydroxy-4-methoxybenzylidene)-3-phenyl-2-thioxothiazolidin-4-one] | 50.9% | as effective as kojic acid at 20 µM | did not show ROS scavenging activity |  |  | 
